Measured values as given in US10898480B1, “Pharmaceutical composition for nasal delivery” (Orexo AB, priority 2019, dated 2021).

Tested on: excised porcine nasal tissue
Assay: Ex vivo nasal mucosal absorption, static diffusion (Franz) cell
Details: diffusion measured after 7 hours, compared with the other formulations
Experimental: A standard static diffusion (Franz) cell set up was employed to set up an ex vivo model for nasal mucosa absorption, using an excised porcine nasal tissue.
Diffusion through the tissue was measured after 7 hours and permeation is shown as mean (three repeats) cumulative transport (μg/cm^2; with SD) in FIGS. 8 and 9 for naloxone and nalmefene, respectively.

benzalkonium chloride
Apparent permeation coefficient (Papp) of nalmefene: No corresponding absorption enhancement | Apparent permeation coefficient (Papp) of naloxone: No corresponding absorption enhancement
